Test results from the kinase profiling compilation of Christmann-Franck et al. (2016).

Columns and labels:
Experiment in all cases: KINOMEscan competition binding
[1] = target: AAK1 (human) (UniProt Q2M2I8); settings: compound 10.0 µM
[2] = target: AKT1 (human) (UniProt P31749); settings: compound 10.0 µM
[3] = target: BRAF (human) (UniProt P15056); settings: compound 10.0 µM
[4] = target: CAMK1G (human) (UniProt Q96NX5); settings: compound 10.0 µM
[5] = target: CDK3 (human) (UniProt Q00526); settings: compound 10.0 µM
[6] = target: CDK4 CCND1 (human) (UniProt P11802+P24385); settings: compound 10.0 µM
[7] = target: CDK5 (human) (UniProt Q00535); settings: compound 10.0 µM
[8] = target: CSNK1D (human) (UniProt P48730); settings: compound 10.0 µM
[9] = target: DYRK2 (human) (UniProt Q92630); settings: compound 10.0 µM
[10] = system: EGFR (human), P00533 [747-751 del / S ins]; settings: compound 10.0 µM
[11] = system: EGFR (human), P00533 [A750P; 747-749 del]; settings: compound 10.0 µM
[12] = target: EIF2AK1 (human) (UniProt Q9BQI3); settings: compound 10.0 µM
[13] = target: EIF2AK2 (human) (UniProt P19525); settings: compound 10.0 µM
[14] = target: EPHA1 (human) (UniProt P21709); settings: compound 10.0 µM
[15] = target: FER (human) (UniProt P16591); settings: compound 10.0 µM
[16] = target: KIT (human) (UniProt P10721); settings: compound 10.0 µM
[17] = target: LATS2 (human) (UniProt Q9NRM7); settings: compound 10.0 µM
[18] = target: MAP3K4 (human) (UniProt Q9Y6R4); settings: compound 10.0 µM
[19] = target: MAP4K4 (human) (UniProt O95819); settings: compound 10.0 µM
[20] = target: MAP4K5 (human) (UniProt Q9Y4K4); settings: compound 10.0 µM
[21] = target: MAPK10 (human) (UniProt P53779); settings: compound 10.0 µM
Sequence of MAPK10 (human) (P53779 whole entry, looked up): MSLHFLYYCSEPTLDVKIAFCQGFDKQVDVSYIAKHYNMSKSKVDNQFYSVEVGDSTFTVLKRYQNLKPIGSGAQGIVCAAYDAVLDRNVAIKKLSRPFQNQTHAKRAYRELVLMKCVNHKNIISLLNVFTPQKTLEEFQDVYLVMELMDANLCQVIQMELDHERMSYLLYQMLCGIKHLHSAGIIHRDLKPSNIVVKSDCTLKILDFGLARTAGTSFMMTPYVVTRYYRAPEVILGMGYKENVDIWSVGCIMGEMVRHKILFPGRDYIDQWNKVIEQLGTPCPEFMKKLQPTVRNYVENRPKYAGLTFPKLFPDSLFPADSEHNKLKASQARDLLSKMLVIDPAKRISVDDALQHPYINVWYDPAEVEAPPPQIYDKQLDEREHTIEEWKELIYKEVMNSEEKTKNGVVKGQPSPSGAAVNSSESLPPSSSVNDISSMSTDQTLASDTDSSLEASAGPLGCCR

[22] = target: MAPK12 (human) (UniProt P53778); settings: compound 10.0 µM
[23] = target: MARK1 (human) (UniProt Q9P0L2); settings: compound 10.0 µM
[24] = target: MELK (human) (UniProt Q14680); settings: compound 10.0 µM
[25] = target: NIM1 (human) (UniProt Q8IY84); settings: compound 10.0 µM
[26] = target: PHKG2 (human) (UniProt P15735); settings: compound 10.0 µM
[27] = system: PIK3CA (human), P42336 [E542K]; settings: compound 10.0 µM
[28] = target: PLK1 (human) (UniProt P53350)
Sequence of PLK1 (human) (P53350 whole entry, looked up): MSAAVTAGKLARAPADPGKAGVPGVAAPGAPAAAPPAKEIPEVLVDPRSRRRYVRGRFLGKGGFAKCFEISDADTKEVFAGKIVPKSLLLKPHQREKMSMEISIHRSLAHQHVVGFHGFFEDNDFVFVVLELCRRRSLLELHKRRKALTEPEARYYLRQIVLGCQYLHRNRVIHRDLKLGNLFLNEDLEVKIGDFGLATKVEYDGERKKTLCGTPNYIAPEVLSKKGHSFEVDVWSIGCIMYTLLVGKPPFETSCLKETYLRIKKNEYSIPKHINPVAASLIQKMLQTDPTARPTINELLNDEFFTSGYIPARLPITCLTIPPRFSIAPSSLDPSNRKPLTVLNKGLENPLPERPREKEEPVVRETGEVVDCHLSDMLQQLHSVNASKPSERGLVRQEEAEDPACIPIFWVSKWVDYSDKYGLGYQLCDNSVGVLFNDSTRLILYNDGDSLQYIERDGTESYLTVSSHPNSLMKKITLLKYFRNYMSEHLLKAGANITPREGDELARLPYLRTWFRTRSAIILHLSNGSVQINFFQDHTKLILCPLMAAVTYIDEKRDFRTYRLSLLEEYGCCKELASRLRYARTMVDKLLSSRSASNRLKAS

[29] = target: PRPF4B (human) (UniProt Q13523); settings: compound 10.0 µM
Sequence of PRPF4B (human) (Q13523 whole entry, looked up): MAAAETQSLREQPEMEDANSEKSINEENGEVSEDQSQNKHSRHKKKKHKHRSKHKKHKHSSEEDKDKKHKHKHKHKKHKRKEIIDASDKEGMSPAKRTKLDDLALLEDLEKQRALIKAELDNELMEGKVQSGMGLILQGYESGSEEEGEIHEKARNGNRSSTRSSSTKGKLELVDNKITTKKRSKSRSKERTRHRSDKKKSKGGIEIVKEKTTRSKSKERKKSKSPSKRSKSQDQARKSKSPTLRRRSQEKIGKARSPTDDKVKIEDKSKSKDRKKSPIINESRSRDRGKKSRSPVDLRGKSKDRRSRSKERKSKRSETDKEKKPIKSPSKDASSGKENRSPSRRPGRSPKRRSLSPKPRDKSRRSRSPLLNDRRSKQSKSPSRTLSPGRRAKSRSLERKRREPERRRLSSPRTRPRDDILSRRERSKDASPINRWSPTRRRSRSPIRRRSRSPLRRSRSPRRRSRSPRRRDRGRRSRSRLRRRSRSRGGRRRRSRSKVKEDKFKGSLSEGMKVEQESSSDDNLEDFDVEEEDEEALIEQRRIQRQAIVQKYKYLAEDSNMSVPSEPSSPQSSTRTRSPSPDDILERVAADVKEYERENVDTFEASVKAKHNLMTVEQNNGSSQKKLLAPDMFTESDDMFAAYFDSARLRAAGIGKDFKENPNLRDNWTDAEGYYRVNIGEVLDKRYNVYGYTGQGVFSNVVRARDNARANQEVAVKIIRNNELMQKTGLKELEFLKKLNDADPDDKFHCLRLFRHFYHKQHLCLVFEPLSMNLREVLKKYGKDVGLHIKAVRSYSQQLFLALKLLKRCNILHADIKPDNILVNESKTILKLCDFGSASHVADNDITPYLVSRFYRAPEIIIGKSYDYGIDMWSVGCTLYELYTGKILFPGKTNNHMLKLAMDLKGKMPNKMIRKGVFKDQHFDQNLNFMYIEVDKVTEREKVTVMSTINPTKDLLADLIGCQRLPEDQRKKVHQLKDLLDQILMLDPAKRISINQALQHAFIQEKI

[30] = target: PTK6 (human) (UniProt Q13882); settings: compound 10.0 µM
[31] = system: RET (human), P07949 [M918T]; settings: compound 10.0 µM
[32] = target: SRPK2 (human) (UniProt P78362); settings: compound 10.0 µM
[33] = target: STK38L (human) (UniProt Q9Y2H1); settings: compound 10.0 µM
[34] = target: TEC (human) (UniProt P42680); settings: compound 10.0 µM
[35] = target: TLK1 (human) (UniProt Q9UKI8); settings: compound 10.0 µM
[36] = target: TNK1 (human) (UniProt Q13470)
Sequence of TNK1 (human) (Q13470 whole entry, looked up): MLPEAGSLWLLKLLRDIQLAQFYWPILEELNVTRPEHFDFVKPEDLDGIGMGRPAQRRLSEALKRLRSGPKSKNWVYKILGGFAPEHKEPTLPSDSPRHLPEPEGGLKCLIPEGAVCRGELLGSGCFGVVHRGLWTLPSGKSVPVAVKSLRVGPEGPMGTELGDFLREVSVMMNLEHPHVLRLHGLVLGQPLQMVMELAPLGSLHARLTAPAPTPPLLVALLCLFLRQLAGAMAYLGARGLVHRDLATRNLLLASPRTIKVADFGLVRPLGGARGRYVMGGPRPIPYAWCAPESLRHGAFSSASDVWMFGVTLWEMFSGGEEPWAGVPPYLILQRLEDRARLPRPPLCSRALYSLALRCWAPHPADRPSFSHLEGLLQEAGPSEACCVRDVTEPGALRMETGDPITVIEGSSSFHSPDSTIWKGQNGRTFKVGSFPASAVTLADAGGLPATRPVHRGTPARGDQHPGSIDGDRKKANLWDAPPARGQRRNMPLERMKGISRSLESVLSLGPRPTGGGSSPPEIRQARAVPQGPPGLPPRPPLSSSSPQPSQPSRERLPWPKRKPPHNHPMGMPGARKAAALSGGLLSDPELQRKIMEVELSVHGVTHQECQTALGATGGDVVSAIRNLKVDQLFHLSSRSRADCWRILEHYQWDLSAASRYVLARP

[37] = target: TSSK1B (human) (UniProt Q9BXA7); settings: compound 10.0 µM
[38] = target: TYK2 JH2 pseudokinase (human) (UniProt P29597); settings: compound 10.0 µM
[39] = target: ULK3 (human) (UniProt Q6PHR2); settings: compound 10.0 µM
[40] = target: YSK4 (human) (UniProt Q56UN5); settings: compound 10.0 µM
Sequence of YSK4 (human) (Q56UN5 whole entry, looked up): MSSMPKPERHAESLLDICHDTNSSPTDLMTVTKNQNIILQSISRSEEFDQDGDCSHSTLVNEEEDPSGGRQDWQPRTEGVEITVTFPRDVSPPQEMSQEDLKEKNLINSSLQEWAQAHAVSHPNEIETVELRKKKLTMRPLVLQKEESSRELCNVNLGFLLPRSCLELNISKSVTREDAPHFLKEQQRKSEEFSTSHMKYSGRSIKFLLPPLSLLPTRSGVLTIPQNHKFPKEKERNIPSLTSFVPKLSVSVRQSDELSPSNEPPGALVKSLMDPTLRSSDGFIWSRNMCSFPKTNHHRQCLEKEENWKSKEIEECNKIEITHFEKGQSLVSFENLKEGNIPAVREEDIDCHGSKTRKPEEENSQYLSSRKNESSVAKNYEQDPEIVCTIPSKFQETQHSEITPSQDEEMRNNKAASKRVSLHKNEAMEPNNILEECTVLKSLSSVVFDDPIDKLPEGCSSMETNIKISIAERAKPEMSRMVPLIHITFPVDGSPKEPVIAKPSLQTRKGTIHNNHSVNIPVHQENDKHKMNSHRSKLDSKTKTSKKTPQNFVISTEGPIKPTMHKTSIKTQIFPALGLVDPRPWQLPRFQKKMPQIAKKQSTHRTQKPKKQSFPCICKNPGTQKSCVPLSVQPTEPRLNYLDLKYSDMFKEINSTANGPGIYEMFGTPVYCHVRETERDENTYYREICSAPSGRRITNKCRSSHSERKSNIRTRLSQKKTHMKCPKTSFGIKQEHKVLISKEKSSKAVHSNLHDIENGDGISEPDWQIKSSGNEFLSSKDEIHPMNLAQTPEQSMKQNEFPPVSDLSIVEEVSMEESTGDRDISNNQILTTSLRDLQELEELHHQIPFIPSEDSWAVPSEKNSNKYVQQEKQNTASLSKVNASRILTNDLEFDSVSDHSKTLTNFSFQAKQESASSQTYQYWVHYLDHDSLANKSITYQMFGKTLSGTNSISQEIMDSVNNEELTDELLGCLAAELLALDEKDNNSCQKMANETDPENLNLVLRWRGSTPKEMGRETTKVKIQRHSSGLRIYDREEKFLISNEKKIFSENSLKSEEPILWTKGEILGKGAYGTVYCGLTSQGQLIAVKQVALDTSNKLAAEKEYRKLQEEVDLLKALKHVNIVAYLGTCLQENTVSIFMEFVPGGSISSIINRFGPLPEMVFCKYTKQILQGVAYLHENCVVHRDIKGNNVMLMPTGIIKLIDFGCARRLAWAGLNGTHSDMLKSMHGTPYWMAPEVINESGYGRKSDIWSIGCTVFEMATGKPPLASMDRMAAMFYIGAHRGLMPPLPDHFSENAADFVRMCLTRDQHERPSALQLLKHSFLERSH

Sequence of BRAF (human) (P15056 whole entry, looked up): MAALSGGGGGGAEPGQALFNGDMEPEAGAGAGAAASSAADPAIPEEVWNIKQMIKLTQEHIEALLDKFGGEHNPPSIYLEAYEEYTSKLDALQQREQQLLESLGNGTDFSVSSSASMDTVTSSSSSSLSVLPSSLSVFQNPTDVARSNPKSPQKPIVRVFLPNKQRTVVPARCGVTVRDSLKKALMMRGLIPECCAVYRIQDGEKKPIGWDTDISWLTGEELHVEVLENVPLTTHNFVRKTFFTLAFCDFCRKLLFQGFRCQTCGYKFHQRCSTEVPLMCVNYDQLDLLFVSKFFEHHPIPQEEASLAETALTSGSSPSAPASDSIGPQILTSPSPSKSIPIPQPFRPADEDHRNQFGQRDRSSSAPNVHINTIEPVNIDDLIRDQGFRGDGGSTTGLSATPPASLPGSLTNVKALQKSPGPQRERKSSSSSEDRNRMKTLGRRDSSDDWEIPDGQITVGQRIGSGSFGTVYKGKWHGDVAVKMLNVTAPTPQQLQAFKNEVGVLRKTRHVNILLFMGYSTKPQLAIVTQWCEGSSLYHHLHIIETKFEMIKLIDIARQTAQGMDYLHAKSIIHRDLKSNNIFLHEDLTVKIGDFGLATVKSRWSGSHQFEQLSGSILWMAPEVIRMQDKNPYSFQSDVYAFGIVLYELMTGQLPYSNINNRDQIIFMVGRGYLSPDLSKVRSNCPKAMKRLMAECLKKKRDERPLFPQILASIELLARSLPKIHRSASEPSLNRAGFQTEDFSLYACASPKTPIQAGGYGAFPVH

## COc1cc(C(=O)N2CCC(N3CCN(C)CC3)CC2)ccc1Nc1ncc2c(n1)N(C)c1ccccc1C(=O)N2C
[1]
  kinase still bound, per cent of control: 84%
[2]
  kinase still bound, per cent of control: 79%
[3]
  kinase still bound, per cent of control: 81%
[4]
  kinase still bound, per cent of control: 74%
[5]
  residual activity: 100%
[6]
  residual activity: 100%
[7]
  residual activity: 81%
[8]
  residual activity: 81%
[9]
  kinase still bound, per cent of control: 76%
[10]
  kinase still bound, per cent of control: 100%
[11]
  kinase still bound, per cent of control: 78%
[12]
  kinase still bound, per cent of control: 100%
[13]
  kinase still bound, per cent of control: 84%
[14]
  kinase still bound, per cent of control: 100%
[15]
  kinase still bound, per cent of control: 51%
[16]
  kinase still bound, per cent of control: 100%
[17]
  kinase still bound, per cent of control: 95%
[18]
  kinase still bound, per cent of control: 100%
[19]
  kinase still bound, per cent of control: 85%
[20]
  kinase still bound, per cent of control: 100%
[21]
  kinase still bound, per cent of control: 77%
[22]
  kinase still bound, per cent of control: 76%
[23]
  kinase still bound, per cent of control: 87%
[24]
  kinase still bound, per cent of control: 100%
[25]
  kinase still bound, per cent of control: 100%
[26]
  kinase still bound, per cent of control: 33%
[27]
  kinase still bound, per cent of control: 77%
[28]
  Kd: 75 nM
[28]; compound 10.0 µM
  kinase still bound, per cent of control: 0.7%
[29]
  kinase still bound, per cent of control: 93%
[30]
  kinase still bound, per cent of control: 58%
[31]
  kinase still bound, per cent of control: 100%
[32]
  kinase still bound, per cent of control: 100%
[33]
  kinase still bound, per cent of control: 100%
[34]
  kinase still bound, per cent of control: 100%
[35]
  kinase still bound, per cent of control: 100%
[36]
  Kd: 23 nM
[36]; compound 10.0 µM
  kinase still bound, per cent of control: 2.8%
[37]
  kinase still bound, per cent of control: 60%
[38]
  kinase still bound, per cent of control: 100%
[39]
  kinase still bound, per cent of control: 100%
[40]
  kinase still bound, per cent of control: 99%
